# ChEMBL document CHEMBL1201862, “PubChem BioAssay data set” (2004)
# The source made the active and inactive calls.
# Tests used:
# [1] = molecular target: Chaperone protein dnaK (Escherichia coli, UniProt C3TRK2); test: DnaK beta-domain binding affinity, SAR follow-up, orthogonal assay for DnaK modulator project, biophysical, isothermal titration calorimetry, full-length DnaK (AID 1495)
# [2] = inhibitors of intracellular T. cruzi replication, confirmation, NIH3T3 host cells, beta-gal luminescence (AID 2044); format: functional, cell-based;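 further: intracellular parasites grown in NIH/3T3 mouse fibroblasts as host cells; luminescent beta-galactosidase reporter signal from transgenic T. cruzi replicating inside host cells; inhibitors lower the luminescence signal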
# [3] = cytotoxicity toward NIH3T3 fibroblasts, dose response, counter-screen, cell-based, ATP luminescence, mouse fibroblasts (AID 2010); format: functional;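 further: cells exposed to compound for about 90 hours before reading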
# [4] = molecular target: Serine/threonine-protein phosphatase (Homo sapiens, UniProt Q9BPW0); test: Counterscreen for inhibitors of PP1: fluorescence-based biochemical high throughput dose response assay to identify inhibitors of Protein Phosphatase 5 (PP5). [Related pubchem assays: 2034 (Summary (PP5 inhibitors)), 1987 (PP5 inhibitors in singlate), 2235 (PP1 inhibitors in singlate)]
# [5] = molecular target: T1, Streptokinase A (Streptococcus pyogenes serotype M1, UniProt P10520); test: S. pyogenes streptokinase expression inhibitors, potency, dose response, plasminogen activation absorbance, OD405 (AID 1914); format: functional, Streptococcus pyogenes M1 GAS;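 further: secreted streptokinase activity via plasminogen activation per viability signal from cell pellet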
# T1 sequence (P10520 whole entry): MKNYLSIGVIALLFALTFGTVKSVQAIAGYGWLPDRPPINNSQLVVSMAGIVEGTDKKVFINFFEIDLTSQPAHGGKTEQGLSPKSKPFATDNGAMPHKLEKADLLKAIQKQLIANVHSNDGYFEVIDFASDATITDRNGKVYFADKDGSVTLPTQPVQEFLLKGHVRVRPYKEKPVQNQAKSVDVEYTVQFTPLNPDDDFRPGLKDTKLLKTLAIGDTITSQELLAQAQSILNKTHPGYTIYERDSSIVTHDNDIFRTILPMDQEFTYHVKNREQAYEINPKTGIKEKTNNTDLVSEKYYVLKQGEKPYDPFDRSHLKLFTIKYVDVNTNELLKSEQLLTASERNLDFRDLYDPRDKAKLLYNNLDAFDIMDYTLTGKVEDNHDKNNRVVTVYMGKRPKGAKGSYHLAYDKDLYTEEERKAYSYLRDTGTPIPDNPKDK
# [6] = test system: Streptococcus; test: Group A Streptococcus viability loss, dose response, counter-screen for streptokinase expression inhibitor project, luminescence, BacTiterGlo (AID 1915); format: functional, organism-based;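 further: potency for reduction of bacterial viability or growth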
# [7] = test system: Streptococcus sp. 'group A'; test: growth inhibition of control SK(-) GAS strain, dose response, counter-screen for streptokinase expression inhibitor project, luminescence, kanamycin, BacTiterGlo, confirmation (AID 1900); format: functional, organism-based
# [8] = molecular target: Serine/threonine-protein phosphatase PP1-alpha catalytic subunit (Homo sapiens, UniProt P62136); test: PP1 phosphatase inhibitors, dose response, biochemical, fluorescence (AID 2403);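 further: phosphatase turnover of OMFP into fluorescent 3-O-methylfluorescein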
# [9] = molecular target: T2, Microphthalmia-associated transcription factor (Homo sapiens, UniProt O75030); test: TRPM1 promoter luciferase signal decrease, dose response, MITF inhibitor project, cell-based, SK-MEL-5, cherry-picked, set 3 (AID 493073); format: functional
# T2 sequence (O75030 whole entry): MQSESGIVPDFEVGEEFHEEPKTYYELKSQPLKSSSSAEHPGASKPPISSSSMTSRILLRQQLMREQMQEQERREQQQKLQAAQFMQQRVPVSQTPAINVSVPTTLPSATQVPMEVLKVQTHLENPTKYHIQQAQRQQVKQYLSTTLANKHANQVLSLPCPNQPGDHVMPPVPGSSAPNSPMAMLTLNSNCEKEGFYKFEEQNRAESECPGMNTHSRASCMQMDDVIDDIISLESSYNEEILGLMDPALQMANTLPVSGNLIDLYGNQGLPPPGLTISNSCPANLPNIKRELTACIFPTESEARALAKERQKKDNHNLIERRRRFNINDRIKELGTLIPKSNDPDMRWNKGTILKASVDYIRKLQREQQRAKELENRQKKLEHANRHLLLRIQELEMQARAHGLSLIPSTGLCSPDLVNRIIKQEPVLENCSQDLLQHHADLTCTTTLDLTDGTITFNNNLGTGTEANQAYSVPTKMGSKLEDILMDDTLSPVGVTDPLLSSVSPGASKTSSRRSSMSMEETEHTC
# [10] = Luminescence-based counterscreen assay for KLF5 inhibitors: dose response cell-based high throughput screening assay to identify cytotoxic compounds using the IEC-6 intestinal epithelial cell line. [Related pubchem assays: 1700 (Primary screen.), 1834 (Confirmation screen.), 1858 (Summary AID.), 1905 (Counterscreen.)]; format: functional
# [11] = molecular target: T3, Eukaryotic translation initiation factor 2-alpha kinase 3 (Homo sapiens, UniProt Q9NZJ5); test: Counterscreen assay for PERK inhibitors: Dose response cell-based high throughput screening assay to measure inhibition of PERK at 6 hours. [Related pubchem assays: 1522, 1416 ]; format: functional
# [12] = molecular target: T3, Eukaryotic translation initiation factor 2-alpha kinase 3; test: Dose response cell-based high-throughput screening assay to measure PERK inhibition. [Related pubchem assays: 1416 ]; format: functional
# [13] = test system: Vero; test: cytotoxicity of synthesized analogs in Vero cells, SAR follow-up, cytotoxicity control for West Nile virus antiviral project, cell-based, set II (AID 2402); format: functional; details: Chlorocebus sabaeus
# [14] = test system: Vero; test: Vero E6 cell cytotoxicity, SAR follow-up, cytotoxicity control for West Nile virus antiviral project, synthesized analogs (AID 2244); format: functional; details: Chlorocebus sabaeus
# [15] = cells; format: functional, cell-based; details: HEK-CNG
# [16] = molecular target: T4, Galanin receptor type 3 (Homo sapiens, UniProt O60755); test: Fluorescence-based cell-based primary high throughput dose response assay to identify antagonists of the Galanin Receptor 3 (GalR3).; format: functional
# T4 sequence (O60755 whole entry): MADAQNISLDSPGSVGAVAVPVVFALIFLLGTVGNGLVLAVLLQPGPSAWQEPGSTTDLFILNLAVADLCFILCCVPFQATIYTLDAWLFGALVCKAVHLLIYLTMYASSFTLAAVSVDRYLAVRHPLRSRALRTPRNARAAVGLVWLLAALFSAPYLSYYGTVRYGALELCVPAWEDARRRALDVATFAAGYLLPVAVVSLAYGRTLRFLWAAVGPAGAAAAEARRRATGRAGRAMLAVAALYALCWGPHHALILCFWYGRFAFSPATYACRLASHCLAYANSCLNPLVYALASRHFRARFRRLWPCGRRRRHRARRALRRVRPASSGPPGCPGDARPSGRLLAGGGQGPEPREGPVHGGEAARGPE
# [17] = molecular target: Cyclin-dependent kinase 5/CDK5 activator 1 (Homo sapiens, UniProt Q00535); test: CDK5/p35 kinase inhibitors, dose response, biochemical, cherry-picked samples, set 2 (AID 504545)
# [18] = molecular target: T5, Neuropeptide Y receptor type 1 (Homo sapiens, UniProt P25929); test: Fluorescence-based counterscreen for agonists of NPY-Y2: cell-based high-throughput dose response assay for agonists of NPY-Y1.; format: functional
# T5 sequence (P25929 whole entry): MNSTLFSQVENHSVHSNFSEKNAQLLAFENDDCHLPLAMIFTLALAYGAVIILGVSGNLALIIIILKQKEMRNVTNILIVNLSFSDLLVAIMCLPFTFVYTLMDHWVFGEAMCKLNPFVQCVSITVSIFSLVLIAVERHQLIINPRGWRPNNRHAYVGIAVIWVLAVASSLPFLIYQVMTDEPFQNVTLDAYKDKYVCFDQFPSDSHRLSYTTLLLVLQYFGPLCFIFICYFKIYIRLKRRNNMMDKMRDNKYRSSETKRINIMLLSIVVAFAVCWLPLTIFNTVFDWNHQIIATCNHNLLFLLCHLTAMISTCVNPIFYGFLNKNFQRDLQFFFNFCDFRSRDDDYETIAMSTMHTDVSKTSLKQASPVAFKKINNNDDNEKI
# [19] = molecular target: T6, Neuropeptide Y receptor type 2 (Homo sapiens, UniProt P49146); test: Fluorescence-based cell-based high-throughput dose response assay for agonists of NPY-Y2. [Related pubchem assays: 1703 (Screening assay (CNGC inhibitors).), 1359 (Screening assay (NPY-Y2 potentiators or agonists).), 1304 (Screening assay (NPY-Y1 potentiators or agonists).), 1710 (Screening assay (NPY-Y2 agonists).), 1791 (Summary AID.)]; format: functional
# T6 sequence (P49146 whole entry): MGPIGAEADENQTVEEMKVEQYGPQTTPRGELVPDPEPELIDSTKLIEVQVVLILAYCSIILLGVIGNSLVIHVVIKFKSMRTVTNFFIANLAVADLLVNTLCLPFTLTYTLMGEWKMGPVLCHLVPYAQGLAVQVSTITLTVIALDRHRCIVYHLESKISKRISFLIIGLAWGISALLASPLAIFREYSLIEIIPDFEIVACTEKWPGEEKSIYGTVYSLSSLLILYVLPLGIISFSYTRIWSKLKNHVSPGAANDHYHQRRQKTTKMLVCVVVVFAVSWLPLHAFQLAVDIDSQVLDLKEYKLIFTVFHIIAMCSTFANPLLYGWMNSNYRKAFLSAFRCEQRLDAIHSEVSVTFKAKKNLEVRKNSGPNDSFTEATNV
# [20] = test system: HEK293; test: Fluorescence-based counterscreen for potentiators or agonists of NPY-Y2: cell-based high-throughput dose response assay to identify inhibitors of cyclic nucleotide gated ion channel (CNGC) activity. In this assay, the parental HEK293 cell line transfected with a cyclic-nucleotide gated ion channel (CNGC)-based cAMP sensor is used to measure inhibition of isoproterenol-induced CNGC activity by test compound.; format: functional; details: Homo sapiens;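 further: stimulus is 1 µM isoproterenol at EC100 plus PDE inhibitor Ro 20-1724 at 25 µM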
# T3 sequence (Q9NZJ5 whole entry): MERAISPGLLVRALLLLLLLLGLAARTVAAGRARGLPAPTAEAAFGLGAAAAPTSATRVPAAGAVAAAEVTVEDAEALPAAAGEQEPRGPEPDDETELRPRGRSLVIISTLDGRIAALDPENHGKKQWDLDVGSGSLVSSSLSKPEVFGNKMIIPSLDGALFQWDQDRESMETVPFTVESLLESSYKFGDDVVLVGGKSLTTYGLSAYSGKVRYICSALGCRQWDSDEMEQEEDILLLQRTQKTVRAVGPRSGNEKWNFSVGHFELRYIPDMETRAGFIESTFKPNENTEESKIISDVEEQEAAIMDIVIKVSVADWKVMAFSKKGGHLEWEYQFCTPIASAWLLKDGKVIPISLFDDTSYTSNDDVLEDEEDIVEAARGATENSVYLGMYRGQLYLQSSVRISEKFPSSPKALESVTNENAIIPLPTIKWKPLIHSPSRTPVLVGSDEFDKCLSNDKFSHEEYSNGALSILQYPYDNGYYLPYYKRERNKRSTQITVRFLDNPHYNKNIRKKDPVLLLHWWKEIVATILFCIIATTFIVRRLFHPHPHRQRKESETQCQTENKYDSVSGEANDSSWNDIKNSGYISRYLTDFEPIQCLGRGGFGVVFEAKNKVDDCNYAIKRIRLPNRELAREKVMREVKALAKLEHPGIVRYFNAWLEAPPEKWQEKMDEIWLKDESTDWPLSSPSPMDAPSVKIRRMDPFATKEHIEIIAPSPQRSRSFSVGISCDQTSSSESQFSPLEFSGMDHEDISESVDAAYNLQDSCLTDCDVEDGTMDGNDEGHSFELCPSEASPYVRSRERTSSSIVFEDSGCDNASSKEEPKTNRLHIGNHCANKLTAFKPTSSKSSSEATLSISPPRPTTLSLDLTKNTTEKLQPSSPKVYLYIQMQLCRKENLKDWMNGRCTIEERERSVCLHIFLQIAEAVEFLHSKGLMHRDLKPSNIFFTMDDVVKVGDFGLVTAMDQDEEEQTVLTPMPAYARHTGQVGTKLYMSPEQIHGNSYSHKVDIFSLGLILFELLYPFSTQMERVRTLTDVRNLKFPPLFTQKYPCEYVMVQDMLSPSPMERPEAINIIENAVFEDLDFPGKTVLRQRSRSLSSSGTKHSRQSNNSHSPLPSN
# Serine/threonine-protein phosphatase, sequence (Q9BPW0 whole entry): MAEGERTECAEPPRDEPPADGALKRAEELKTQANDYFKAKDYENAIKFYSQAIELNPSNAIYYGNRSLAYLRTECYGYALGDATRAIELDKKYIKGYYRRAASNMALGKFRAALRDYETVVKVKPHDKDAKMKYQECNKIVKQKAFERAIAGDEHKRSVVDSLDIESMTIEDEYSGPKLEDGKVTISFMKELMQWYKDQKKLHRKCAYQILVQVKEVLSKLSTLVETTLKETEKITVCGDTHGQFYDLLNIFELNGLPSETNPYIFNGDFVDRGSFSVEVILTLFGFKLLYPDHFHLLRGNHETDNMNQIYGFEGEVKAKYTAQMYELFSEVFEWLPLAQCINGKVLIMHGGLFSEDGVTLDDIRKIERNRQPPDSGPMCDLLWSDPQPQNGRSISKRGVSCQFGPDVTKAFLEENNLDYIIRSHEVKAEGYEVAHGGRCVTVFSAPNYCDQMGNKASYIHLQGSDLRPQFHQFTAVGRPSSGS
# Serine/threonine-protein phosphatase PP1-alpha catalytic subunit, sequence (P62136 whole entry): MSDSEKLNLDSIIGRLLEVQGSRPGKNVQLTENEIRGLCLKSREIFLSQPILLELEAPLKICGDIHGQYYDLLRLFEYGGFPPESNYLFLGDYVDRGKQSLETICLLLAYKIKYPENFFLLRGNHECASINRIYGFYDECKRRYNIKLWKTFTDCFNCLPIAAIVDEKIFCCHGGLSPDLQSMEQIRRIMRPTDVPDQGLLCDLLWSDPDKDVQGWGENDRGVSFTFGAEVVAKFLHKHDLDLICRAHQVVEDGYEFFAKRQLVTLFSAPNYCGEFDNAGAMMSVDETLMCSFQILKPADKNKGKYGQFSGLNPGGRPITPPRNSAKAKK
# Chaperone protein dnaK, sequence (C3TRK2 whole entry): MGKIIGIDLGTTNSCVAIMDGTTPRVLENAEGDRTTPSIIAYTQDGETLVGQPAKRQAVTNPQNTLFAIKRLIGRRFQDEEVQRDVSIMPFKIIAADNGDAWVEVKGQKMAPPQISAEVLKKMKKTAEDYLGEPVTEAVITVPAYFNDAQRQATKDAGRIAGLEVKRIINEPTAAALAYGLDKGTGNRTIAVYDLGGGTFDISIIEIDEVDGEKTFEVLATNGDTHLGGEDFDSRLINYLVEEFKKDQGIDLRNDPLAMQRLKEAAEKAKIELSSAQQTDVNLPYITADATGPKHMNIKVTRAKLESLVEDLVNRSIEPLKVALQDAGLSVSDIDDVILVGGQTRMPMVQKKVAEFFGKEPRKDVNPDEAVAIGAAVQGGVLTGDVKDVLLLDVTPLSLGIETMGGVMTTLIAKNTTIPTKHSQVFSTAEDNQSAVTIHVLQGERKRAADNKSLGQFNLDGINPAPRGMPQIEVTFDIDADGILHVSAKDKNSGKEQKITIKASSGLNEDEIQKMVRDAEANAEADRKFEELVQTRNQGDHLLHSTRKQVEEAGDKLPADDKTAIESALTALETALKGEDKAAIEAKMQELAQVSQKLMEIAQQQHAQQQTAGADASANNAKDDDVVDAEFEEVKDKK
# Cyclin-dependent kinase 5/CDK5 activator 1, sequence (Q00535 whole entry): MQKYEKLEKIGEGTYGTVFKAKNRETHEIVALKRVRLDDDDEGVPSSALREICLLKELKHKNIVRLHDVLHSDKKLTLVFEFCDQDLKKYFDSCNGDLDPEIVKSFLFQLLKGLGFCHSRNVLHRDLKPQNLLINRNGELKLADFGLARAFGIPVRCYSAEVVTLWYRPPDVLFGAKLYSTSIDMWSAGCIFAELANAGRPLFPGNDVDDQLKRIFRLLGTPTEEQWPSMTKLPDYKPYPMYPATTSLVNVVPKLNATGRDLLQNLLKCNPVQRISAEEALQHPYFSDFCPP
# Cyclin-dependent kinase 5/CDK5 activator 1, sequence (Q15078 whole entry, further chain): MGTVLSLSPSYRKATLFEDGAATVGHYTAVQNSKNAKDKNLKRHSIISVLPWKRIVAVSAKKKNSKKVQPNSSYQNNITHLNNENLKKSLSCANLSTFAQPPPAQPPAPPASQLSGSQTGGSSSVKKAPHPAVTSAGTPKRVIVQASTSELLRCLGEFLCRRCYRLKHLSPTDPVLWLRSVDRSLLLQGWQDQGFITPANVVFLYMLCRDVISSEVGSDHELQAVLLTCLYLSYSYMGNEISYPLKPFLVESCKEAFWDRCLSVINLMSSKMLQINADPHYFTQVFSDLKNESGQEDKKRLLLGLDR
compound,measurement,setting,value
O=C(Nc1ccc2[nH]ccc2c1)c1cccs1,Kd,[1],12.7 µM (active)
COc1ccc(OCCCC(=O)Nc2nc(-c3ccccn3)cs2)cc1,EC50,[2],3.24 µM (active)
same,EC50,[3],4.35 µM (active)
same,IC50,[4],> 67 µM (not active)
same,EC50,[5],> 150 µM (not active)
same,EC50,[6],> 150 µM (not active)
same,EC50,[7],31.2 µM (active)
same,IC50,[8],4.59 µM (active)
CCCc1ccc(-c2ccc(/C=C/C(=O)O)cc2)nc1,AC50,[9],0.039 µM (active)
same,IC50,[10],> 39.8 µM (not active)
COc1cc([N+](=O)[O-])cc2sc(NC(=O)C(C)(C)C)nc12,EC50,[11],> 55.7 µM (not active)
same,EC50,[12],> 55.7 µM (not active)
CCCN(C(=O)c1ccccc1Cl)c1nc(-c2ccc(OC)cc2)cs1,CC50,[13],63.2 µM (active)
same,CC50,[14],> 40 µM (active)
CCCc1cc(-c2[nH]ncc2-c2ccc(C(=O)OCC)o2)c(O)cc1O,EC50,[15],> 29.9 µM (inactive)
same,IC50,[16],12.8 µM (inactive)
same,AC50,[17],10 µM (active)
same,EC50,[18],18.5 µM (not active)
same,EC50,[19],> 35.4 µM (not active)
same,EC50,[20],> 35.4 µM (not active)
